Source: PMC10975012, “The Active Glucuronide Metabolite of the Brain Protectant IMM-H004 with Poor Blood–Brain Barrier Permeability Demonstrates a High Partition in the Rat Brain via Multiple Mechanisms” (Pharmaceutics, 2024)

Legend:
Type in all cases: cell-based
OATP1A2 = target: T1, OATP1A2 (Homo sapiens, UniProt P46721); experiment: Uptake in CHO-OATP1A2 overexpressing cells; conditions: CHO-OATP1A2 vs mock, 10 min; IMM-H004G 10 μmol/L
T1 construct: host or cells: CHO
T1 sequence (P46721 1-670): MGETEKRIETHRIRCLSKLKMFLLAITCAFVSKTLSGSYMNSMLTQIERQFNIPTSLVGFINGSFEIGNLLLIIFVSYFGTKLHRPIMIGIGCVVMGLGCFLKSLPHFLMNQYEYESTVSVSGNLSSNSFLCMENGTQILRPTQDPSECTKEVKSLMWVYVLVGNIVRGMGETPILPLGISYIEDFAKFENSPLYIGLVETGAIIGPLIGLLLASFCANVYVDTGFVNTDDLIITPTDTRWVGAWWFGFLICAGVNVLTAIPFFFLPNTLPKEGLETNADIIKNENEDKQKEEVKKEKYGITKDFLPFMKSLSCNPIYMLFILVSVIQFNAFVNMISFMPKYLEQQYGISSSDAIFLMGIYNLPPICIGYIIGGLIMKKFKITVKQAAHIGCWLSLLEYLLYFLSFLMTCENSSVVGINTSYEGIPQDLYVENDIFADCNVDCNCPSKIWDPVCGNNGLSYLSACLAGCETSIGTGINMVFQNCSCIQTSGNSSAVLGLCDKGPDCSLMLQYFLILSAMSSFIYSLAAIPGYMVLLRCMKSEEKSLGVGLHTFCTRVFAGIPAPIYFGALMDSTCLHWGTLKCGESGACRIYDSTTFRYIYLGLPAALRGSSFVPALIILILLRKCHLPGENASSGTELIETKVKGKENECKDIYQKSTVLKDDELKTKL
Description: (§1) CHO cells and MDCKⅡ cells were stably transfected with lentiviruses carrying human SCLO1A2 (encoding OATP1A2) and SCLO2B1 (encoding OATP2B1), respectively. Cell transfected with lentiviruses carrying empty vectors served as control. Lentiviral plasmid packages were obtained from OBiO Technology (Shanghai, China), and procedures followed the instructions of the virus manual. Stably transfected cells were routinely grown in a 100 mm dish in DMEM with 10% fetal bovine serum. Prior to the experiments, the seeding density of the overexpressing cells in 24-well plates was 4 × 10^5 cells per well, and the medium was supplemented with 2 mM sodium butyrate for 24 h. The cultured cells were washed twice with prewarmed HBSS after removing the medium and then treated with 10 μmol/L IMM-H004G and 100 μmol/L rifampicin (or an equal amount of solvent dimethyl sulfoxide) for 10 min. After incubation, the cells were washed four times with cold HBSS. Follow-up sample processing procedures were as described in Section 2.3.1. E17βG (5 μmol/L) and rosuvastatin (10 μmol/L) were used as positive substrates in CHO-OATP1A2 and MDCKⅡ-OATP2B1 cells, respectively. The MDCKⅡ-MDR1 cells were previously established by our laboratory.

OATP2B1 = target: T2, OATP2B1 (Homo sapiens, UniProt O94956); experiment: Uptake in MDCKⅡ-OATP2B1 overexpressing cells; conditions: MDCKⅡ-OATP2B1 vs mock, 10 min; IMM-H004G 10 μmol/L
T2 construct: host or cells: MDCKII
T2 sequence (O94956 1-709): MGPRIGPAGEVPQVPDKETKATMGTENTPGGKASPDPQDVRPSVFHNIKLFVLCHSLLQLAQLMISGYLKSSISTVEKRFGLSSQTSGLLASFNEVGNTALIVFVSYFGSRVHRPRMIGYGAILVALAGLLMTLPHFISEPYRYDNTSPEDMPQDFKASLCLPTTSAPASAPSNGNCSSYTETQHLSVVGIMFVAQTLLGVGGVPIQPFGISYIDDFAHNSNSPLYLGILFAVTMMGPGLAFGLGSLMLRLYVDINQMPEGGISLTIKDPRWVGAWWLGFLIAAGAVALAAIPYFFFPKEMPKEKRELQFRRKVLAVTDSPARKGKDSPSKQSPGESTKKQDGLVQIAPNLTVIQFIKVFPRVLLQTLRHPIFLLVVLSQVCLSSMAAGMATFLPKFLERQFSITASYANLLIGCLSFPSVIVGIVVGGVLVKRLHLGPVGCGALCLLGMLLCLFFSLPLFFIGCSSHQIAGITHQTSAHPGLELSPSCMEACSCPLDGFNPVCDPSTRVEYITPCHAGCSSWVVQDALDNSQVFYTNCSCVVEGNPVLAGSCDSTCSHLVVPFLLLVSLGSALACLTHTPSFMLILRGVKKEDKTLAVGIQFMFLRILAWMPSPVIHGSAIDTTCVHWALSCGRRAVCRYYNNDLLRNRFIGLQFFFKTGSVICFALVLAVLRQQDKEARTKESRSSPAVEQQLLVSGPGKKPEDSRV
Description: as §1

OATP1B1 = target: T3, OATP1B1 (Homo sapiens, UniProt Q9Y6L6); experiment: Uptake in MDCKⅡ-OATP1B1 cells; conditions: MDCKⅡ-OATP1B1, 30, 60 µmol/L, 20 or 40 min
T3 construct: expressed in transfected cells; host or cells: MDCKII
T3 sequence (Q9Y6L6 1-691): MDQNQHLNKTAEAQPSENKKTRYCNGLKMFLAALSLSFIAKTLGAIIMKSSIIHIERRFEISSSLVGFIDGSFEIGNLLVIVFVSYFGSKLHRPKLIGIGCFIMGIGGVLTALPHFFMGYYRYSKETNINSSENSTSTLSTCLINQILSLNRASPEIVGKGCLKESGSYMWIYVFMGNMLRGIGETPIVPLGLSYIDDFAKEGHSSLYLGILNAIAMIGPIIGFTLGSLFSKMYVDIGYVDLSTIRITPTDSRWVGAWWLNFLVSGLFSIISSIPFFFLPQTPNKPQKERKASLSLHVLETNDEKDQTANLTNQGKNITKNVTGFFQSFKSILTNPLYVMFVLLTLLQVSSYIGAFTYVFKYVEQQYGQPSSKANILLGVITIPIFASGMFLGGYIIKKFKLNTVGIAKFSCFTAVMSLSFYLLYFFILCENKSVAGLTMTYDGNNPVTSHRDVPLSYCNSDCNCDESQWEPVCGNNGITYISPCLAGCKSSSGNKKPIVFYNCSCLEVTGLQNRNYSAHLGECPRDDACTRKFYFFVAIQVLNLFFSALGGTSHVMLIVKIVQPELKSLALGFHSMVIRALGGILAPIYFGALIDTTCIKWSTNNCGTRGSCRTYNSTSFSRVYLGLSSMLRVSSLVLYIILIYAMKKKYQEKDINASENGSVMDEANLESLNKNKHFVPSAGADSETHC
Procedure: Figure S4 Uptake of IMM-H004G in MDCKⅡ-OATP1B1 and MDCKⅡ-OATP1B3 cells. (a)
RSV (rosuvastatin, 30 µmol/L) is used as a positive group in MDCKⅡ-OATP1B1 cells. (b)
E17βG (estradiol-17β-glucuronide, 5 µmol/L) is used as a positive group in
MDCKⅡ-OATP1B3 cells. (c) IMM-H004G (30, 60 µmol/L) was incubated with
MDCKⅡ-OATP1B1 and MDCKⅡ-OATP1B3 cells for 20 or 40 min. The OATP
pan-inhibitor CsA (cyclosporin A) is 10 µmol/L. n=3 for positive substrates, and n=2 for
IMM-H004G. ***p < 0.001, **p < 0.01, *p < 0.05 vs. control group. ns, not significant.
(1 picture or pasted object on this page, not shown here)

uptake increase in OATP1A2-overexpressing cells compared to control cells (OATP1A2): 9.7 fold
uptake increase in OATP2B1-overexpressing cells compared to control cells (OATP2B1): 190 fold
uptake increase in OATP1B1-overexpressing cells compared to control cells (OATP1B1): did not exceed a tenfold increase
SMILES: COc1cc(OC2OC(C(=O)O)C(O)C(O)C2O)cc2oc(=O)c(N3CCN(C)CC3)c(C)c12 (stereo not drawn) [IMM-H004G]
